The experiment deals with SK-MEL-2. Briefly: Growth inhibition of human SK-MEL-2 cells. It is filed as functional.

Calls of active or inactive are those of the source. The calls are words filed in the database; no cut-off is given here.

As to `O=C1c2cccnc2-c2nc(-c3ccccn3)cc3c2c1nc1ccccc13`, the GI50 (read-out: GI50) was 0.874 µM and the GI50 (read-out: pGI50 (converted)) is 0.875 µM.

Turning to `Cc1ccc(-c2cc3c4c(nc5ccccc53)C(=O)c3cccnc3-c4n2)cc1`, the GI50 is 15 µM (read-out: GI50) and 15 µM (read-out: pGI50 (converted)).

For `COc1cc(C2c3cc4c(cc3OC(N3CCCC3)C2C)OCO4)cc(OC)c1OC` (stereo unspecified), the “growth inhibition (GI)” value is “Active”.

On to `CC1C(c2ccccc2O)c2cc3c(cc2OC1N1CCCC1)OCO3` (stereo unspecified), for which the “growth inhibition (GI)” value was “inactive”.

Values taken from ChEMBL document CHEMBL4699425, “Active learning effectively identifies a minimal set of maximally informative and asymptotically performant cytotoxic structure-activity patterns in NCI-60 cell lines” (2020).
